# How the values were obtained:
# [1] = molecular target: Phosphatidylinositol 4,5-bisphosphate 3-kinase catalytic subunit alpha isoform (Homo sapiens, UniProt P42336); assay: Inhibition of PI3Kalpha (unknown origin) using PIP2 as substrate by Kinase-Glo assay
# [2] = molecular target: Phosphatidylinositol 4,5-bisphosphate 3-kinase catalytic subunit beta isoform (Homo sapiens, UniProt P42338); assay: Inhibition of PI3Kbeta (unknown origin) using PIP2 as substrate by ADP-Glo assay
# [3] = molecular target: Phosphatidylinositol 4,5-bisphosphate 3-kinase catalytic subunit gamma isoform (Homo sapiens, UniProt P48736); assay: Inhibition of PI3Kgamma (unknown origin) using PIP2 as substrate by ADP-Glo assay
# Chain of Phosphatidylinositol 4,5-bisphosphate 3-kinase catalytic subunit gamma isoform (P48736 whole entry, canonical isoform): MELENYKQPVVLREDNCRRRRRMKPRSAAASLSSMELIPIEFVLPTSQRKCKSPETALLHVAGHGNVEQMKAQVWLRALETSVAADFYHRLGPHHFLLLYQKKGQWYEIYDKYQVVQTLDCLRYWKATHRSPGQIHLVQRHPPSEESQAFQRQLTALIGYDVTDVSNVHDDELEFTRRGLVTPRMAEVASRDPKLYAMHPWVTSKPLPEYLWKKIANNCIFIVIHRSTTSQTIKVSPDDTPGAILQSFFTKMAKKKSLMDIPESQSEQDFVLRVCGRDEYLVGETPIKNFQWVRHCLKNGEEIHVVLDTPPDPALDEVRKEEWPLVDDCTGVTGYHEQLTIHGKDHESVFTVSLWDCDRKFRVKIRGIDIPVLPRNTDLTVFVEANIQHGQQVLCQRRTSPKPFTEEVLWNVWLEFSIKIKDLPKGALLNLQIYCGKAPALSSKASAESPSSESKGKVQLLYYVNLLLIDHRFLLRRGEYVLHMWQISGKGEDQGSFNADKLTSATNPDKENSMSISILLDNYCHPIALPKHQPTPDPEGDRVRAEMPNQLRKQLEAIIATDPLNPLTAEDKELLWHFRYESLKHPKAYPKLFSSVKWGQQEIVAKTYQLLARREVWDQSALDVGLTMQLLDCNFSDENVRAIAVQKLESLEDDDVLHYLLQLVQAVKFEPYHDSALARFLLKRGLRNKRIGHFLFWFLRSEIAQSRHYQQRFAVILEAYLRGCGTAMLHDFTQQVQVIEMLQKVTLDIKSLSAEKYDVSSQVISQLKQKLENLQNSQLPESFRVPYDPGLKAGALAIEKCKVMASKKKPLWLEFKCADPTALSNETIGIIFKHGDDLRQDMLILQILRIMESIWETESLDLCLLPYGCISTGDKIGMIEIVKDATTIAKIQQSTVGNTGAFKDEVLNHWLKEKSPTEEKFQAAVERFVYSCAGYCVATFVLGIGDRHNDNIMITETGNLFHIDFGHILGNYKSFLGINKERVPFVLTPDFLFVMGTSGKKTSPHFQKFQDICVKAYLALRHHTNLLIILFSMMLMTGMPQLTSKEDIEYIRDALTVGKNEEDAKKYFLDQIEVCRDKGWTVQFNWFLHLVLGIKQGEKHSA
# [4] = molecular target: T1, Phosphatidylinositol 4,5-bisphosphate 3-kinase catalytic subunit delta isoform (Homo sapiens, UniProt O00329); assay: Inhibition of PI3Kdelta (unknown origin) using PIP2 as substrate by ADP-Glo assay
# T1 sequence (O00329 whole entry): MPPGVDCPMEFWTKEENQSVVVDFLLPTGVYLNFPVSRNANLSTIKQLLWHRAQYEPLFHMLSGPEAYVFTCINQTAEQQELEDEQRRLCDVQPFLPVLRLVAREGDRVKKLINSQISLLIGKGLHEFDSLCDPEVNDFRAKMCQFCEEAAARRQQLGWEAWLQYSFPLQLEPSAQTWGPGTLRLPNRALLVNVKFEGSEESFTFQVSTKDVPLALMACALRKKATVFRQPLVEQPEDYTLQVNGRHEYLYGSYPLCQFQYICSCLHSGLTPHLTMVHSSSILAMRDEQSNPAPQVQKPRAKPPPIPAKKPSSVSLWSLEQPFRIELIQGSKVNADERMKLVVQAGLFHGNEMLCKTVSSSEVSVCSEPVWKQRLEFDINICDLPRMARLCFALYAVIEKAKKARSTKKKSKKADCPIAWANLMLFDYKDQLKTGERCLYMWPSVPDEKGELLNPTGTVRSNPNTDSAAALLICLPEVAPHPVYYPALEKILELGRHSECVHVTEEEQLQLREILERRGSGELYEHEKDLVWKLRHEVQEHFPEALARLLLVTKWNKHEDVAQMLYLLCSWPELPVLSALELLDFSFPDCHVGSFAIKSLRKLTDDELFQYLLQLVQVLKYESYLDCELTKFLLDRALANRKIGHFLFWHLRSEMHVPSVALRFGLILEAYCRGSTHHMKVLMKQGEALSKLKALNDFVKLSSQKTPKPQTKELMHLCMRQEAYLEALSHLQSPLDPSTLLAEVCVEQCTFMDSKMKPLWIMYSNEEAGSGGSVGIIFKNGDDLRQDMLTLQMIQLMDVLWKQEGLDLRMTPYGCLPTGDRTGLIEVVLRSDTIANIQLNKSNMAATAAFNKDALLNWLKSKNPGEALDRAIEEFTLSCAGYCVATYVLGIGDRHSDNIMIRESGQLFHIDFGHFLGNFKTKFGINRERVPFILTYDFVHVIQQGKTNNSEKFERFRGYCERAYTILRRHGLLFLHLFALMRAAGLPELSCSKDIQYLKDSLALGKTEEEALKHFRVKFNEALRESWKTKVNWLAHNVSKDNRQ
# [5] = molecular target: RAC-alpha serine/threonine-protein kinase (Homo sapiens, UniProt P31749); assay: Inhibition of AKT1 (unknown origin) using FAM-labeled peptide as substrate by mobility shift assay
# [6] = molecular target: Serine/threonine-protein kinase mTOR (Homo sapiens, UniProt P42345); assay: Inhibition of mTOR (unknown origin) using ULight-4E-BP1 peptide as substrate after 30 mins by Lance Ultra assay
# MDA-MB-231 = assay: cells; format: functional, cell-based; settings: Homo sapiens, MDA-MB-231, 96 h
# Description: Cytotoxicity against human MDA-MB-231 cells after 96 hrs by MTT assay
# HGC-27 = assay: cells; format: functional, cell-based; settings: Homo sapiens, HGC-27, 96 h
# Description: Cytotoxicity against human HGC27 cells after 96 hrs by MTT assay
# DU-145 = assay: cells; format: functional, cell-based; settings: Homo sapiens, DU-145, 96 h
# Description: Cytotoxicity against human DU145 cells after 96 hrs by MTT assay
# SH-SY5Y = assay: cells; format: functional, cell-based; settings: Homo sapiens, 96 h
# Description: Cytotoxicity against human SH-SY5Y cells after 96 hrs by MTT assay
# [7] = molecular target: Voltage-gated inwardly rectifying potassium channel KCNH2 (Homo sapiens, UniProt Q12809)
# Chain of Voltage-gated inwardly rectifying potassium channel KCNH2 (Q12809 whole entry): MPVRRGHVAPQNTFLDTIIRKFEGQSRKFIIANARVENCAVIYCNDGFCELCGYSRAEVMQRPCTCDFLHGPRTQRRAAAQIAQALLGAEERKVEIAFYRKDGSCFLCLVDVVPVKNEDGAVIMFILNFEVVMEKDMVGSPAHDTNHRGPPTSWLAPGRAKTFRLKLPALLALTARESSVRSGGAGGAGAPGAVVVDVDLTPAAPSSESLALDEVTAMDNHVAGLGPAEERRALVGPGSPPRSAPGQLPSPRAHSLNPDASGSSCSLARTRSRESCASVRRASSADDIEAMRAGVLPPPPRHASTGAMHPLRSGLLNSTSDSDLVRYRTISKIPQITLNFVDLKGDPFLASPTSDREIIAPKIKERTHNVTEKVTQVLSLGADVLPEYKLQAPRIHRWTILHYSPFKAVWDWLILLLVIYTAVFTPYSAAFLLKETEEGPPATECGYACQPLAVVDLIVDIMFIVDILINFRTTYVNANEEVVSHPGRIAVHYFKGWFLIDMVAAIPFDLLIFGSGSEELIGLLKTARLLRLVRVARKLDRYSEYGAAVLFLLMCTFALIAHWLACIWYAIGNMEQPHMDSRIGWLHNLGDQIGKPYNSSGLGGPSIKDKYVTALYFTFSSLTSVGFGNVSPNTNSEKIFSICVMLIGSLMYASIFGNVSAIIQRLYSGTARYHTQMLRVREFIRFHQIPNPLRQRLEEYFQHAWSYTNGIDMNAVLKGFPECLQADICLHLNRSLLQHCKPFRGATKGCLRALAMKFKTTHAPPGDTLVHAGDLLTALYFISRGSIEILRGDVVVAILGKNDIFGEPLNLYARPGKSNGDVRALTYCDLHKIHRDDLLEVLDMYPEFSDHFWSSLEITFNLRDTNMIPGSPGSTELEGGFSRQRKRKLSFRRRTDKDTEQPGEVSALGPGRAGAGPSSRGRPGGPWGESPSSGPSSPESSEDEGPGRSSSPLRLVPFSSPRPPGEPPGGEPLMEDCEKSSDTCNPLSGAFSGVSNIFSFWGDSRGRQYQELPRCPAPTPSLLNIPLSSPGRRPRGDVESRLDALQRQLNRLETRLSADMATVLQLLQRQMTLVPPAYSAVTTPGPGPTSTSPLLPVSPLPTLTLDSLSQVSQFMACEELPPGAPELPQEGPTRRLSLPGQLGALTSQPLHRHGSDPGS
# Description: Inhibition of human ERG expressed in CHO cell membranes by patch clamp method
# Cytochrome P450 2C19 = Cytochrome P450 2C19 (Homo sapiens, UniProt P33261)
# Chain of Cytochrome P450 2C19 (P33261 whole entry): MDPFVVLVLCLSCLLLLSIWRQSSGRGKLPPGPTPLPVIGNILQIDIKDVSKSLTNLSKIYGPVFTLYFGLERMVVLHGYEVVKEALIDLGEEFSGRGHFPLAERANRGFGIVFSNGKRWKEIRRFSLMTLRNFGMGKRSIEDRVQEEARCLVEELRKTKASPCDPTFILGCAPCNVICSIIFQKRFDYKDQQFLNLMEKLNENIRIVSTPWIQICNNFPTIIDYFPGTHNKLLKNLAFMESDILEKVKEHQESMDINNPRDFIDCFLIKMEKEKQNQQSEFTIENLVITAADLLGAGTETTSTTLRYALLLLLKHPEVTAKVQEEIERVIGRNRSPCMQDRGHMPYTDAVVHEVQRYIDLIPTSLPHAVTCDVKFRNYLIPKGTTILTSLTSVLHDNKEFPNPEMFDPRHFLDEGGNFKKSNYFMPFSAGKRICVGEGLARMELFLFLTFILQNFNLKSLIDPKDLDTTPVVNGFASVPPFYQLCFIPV
# Description: Inhibition of CYP2C19 in human liver microsomes assessed as reduction in 4-Hydroxymephenytoinn formation using mephenytoin as substrate after 10 to 20 mins in presence of NADPH by LC-MS/MS analysis
# Cytochrome P450 2D6 = Cytochrome P450 2D6 (Homo sapiens, UniProt P10635)
# Description: Inhibition of CYP2D6 in human liver microsomes assessed as reduction in dextrophan formation using detromethorphann as substrate after 10 to 20 mins in presence of NADPH by LC-MS/MS analysis
# Cytochrome P450 2C9 = Cytochrome P450 2C9 (Homo sapiens, UniProt P11712)
# Chain of Cytochrome P450 2C9 (P11712 whole entry): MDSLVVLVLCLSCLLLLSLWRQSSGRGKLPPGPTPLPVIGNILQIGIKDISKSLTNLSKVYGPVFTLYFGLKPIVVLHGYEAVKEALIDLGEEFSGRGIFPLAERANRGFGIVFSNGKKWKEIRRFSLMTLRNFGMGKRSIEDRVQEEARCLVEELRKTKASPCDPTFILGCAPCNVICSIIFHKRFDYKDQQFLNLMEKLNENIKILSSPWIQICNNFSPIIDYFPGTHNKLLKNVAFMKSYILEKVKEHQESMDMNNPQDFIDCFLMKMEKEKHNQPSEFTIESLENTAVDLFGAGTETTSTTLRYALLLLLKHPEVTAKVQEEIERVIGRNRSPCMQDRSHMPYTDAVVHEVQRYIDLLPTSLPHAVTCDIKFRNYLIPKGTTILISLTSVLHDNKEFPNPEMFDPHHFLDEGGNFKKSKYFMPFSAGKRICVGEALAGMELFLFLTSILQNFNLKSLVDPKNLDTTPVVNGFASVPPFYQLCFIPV
# Description: Inhibition of CYP2C9 in human liver microsomes assessed as reduction in 4-Hydroxydiclofenac formation using diclofenac as substrate after 10 to 20 mins in presence of NADPH by LC-MS/MS analysis
# Cytochrome P450 3A4 = Cytochrome P450 3A4 (Homo sapiens, UniProt P08684)
# Chain of Cytochrome P450 3A4 (P08684 whole entry): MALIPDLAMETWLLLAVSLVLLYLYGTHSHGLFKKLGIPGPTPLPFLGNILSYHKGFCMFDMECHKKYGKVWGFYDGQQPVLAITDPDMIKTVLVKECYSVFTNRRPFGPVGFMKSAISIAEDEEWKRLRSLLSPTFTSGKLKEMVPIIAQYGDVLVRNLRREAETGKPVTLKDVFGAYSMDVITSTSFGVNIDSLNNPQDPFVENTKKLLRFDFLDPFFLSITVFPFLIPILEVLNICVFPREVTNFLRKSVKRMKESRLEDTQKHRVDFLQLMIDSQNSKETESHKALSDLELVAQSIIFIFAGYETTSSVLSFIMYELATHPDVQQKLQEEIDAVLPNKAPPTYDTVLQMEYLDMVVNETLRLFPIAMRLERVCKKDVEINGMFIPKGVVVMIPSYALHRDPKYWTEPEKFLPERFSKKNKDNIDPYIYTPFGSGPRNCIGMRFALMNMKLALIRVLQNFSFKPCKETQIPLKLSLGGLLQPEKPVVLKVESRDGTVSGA
# Description: Inhibition of CYP3A4 in human liver microsomes assessed as reduction in 1-Hydroxymidazolam formation using midazolam as substrate after 10 to 20 mins in presence of NADPH by LC-MS/MS analysis
# [8] = mouse, in vivo, po, 30 mg/kg
# in vivo [9] = settings: ICR, mouse, plasma, iv, 3 mg/kg
# in vivo [10] = settings: ICR, mouse, plasma, iv, 3 mg/kg; remark: listed apart in the source
# in vivo [11] = settings: ICR, mouse, plasma, iv, 3 mg/kg; remark: listed apart in the source
# in vivo [12] = settings: ICR, mouse, plasma, po, 30 mg/kg
# in vivo [13] = settings: ICR, mouse, plasma, iv, 3 mg/kg; remark: listed apart in the source
# in vivo [14] = settings: ICR, mouse, plasma, po, 30 mg/kg; remark: listed apart in the source
# in vivo [15] = settings: ICR, mouse, plasma, iv, 3 mg/kg; remark: listed apart in the source
# Description: Half life in ICR mouse plasma at 3 mg/kg, iv by LC/MS/MS analysis
# in vivo [16] = settings: ICR, mouse, plasma, po, 30 mg/kg; remark: listed apart in the source
# Description: Half life in ICR mouse plasma at 30 mg/kg, po by LC/MS/MS analysis
# in vivo [17] = settings: ICR, mouse, plasma, iv, 3 mg/kg; remark: listed apart in the source
# Description: Clearance in ICR mouse plasma at 3 mg/kg, iv by LC/MS/MS analysis
# in vivo [18] = settings: ICR, mouse, plasma, po, 30 mg/kg; remark: listed apart in the source
# in vivo [19] = settings: ICR, mouse, po
# Description: Toxicity in po dosed ICR mouse administered as single dose via oral gavage measured after 14 days
# Chain of Phosphatidylinositol 4,5-bisphosphate 3-kinase catalytic subunit alpha isoform (P42336 whole entry, canonical isoform): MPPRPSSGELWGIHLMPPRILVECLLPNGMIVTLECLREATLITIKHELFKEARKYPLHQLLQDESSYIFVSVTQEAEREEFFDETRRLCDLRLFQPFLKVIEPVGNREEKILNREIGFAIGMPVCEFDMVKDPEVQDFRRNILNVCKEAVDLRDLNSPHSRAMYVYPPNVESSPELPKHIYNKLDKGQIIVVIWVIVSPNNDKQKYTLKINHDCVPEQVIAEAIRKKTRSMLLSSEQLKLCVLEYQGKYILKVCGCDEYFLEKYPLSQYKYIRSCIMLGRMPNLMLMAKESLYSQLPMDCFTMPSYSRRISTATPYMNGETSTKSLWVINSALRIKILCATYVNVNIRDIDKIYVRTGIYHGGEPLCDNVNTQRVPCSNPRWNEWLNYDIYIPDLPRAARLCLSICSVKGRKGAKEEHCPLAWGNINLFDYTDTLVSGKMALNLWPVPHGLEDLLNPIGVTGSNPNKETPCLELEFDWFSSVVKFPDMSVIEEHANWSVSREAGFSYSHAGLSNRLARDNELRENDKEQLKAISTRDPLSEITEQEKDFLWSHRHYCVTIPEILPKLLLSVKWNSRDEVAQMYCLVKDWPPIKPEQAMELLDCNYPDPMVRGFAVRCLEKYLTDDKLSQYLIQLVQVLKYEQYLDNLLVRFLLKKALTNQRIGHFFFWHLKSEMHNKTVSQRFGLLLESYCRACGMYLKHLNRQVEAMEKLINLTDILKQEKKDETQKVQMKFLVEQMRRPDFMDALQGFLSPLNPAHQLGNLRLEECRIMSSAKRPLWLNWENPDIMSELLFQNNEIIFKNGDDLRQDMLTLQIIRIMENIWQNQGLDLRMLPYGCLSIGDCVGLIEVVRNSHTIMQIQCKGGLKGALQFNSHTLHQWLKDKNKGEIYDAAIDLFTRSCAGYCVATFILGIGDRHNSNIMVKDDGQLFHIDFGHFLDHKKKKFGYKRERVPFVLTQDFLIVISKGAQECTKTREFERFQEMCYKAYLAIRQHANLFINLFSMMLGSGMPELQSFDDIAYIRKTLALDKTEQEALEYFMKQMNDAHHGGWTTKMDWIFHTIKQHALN
Structure (SMILES),IC50 [1] [nM],IC50 [2] [nM],IC50 [3] [nM],IC50 [4] [nM],IC50 [5] [nM],IC50 [6] [nM],IC50 (MDA-MB-231) [nM],IC50 (HGC-27) [nM],IC50 (DU-145) [nM],IC50 (SH-SY5Y) [nM],IC50 [7] [nM],IC50 (Cytochrome P450 2C19) [nM],IC50 (Cytochrome P450 2D6) [nM],IC50 (Cytochrome P450 2C9) [nM],IC50 (Cytochrome P450 3A4) [nM],AUCt [8] [ng·h/g],Tmax (in vivo [9]) [min],Cmax (in vivo [10]) [ng/mL],AUC(0-t) (in vivo [11]) [ng·h/mL],AUC(0-t) (in vivo [12]) [ng·h/mL],further results
CNc1nc(C)c2cc(-c3cnc(OC)c(NS(=O)(=O)c4ccc(F)cc4F)c3)cc(OC3CCOCC3)c2n1,1.4,1.2,1.7,0.35,> 10000,43,260,16,5200,510,> 10000,> 10000,> 10000,> 10000,> 10000,895,3,7720,3480,15500,AUC(0-inf) (in vivo [13]): 3500 ng·h/mL; AUC(0-inf) (in vivo [14]): 16100 ng·h/mL; half-life (in vivo [15]): 37.2 min; half-life (in vivo [16]): 255 min; clearance (in vivo [17]): 14.3 mL/min/kg; bioavailability (in vivo [18]): 44.4%; MTD at 336 h (in vivo [19]): > 40 mg/kg
COc1ncc(-c2cc(O[C@@H]3CCOC3)c3nc(N)nc(C)c3c2)cc1NS(=O)(=O)c1ccc(F)cc1F,1,0.4,1.2,0.23,> 10000,9.9,300,56,2100,950,> 10000,> 10000,> 10000,> 10000,> 10000,28.6,1.8,1580,904,8690,AUC(0-inf) (in vivo [13]): 911 ng·h/mL; AUC(0-inf) (in vivo [14]): 9040 ng·h/mL; half-life (in vivo [15]): 32.4 min; half-life (in vivo [16]): 281 min; clearance (in vivo [17]): 54.9 mL/min/kg; bioavailability (in vivo [18]): 96.2%; MTD at 336 h (in vivo [19]): > 50 mg/kg
CNc1nc(C)c2cc(-c3cnc(OC)c(NS(=O)(=O)c4ccc(F)cc4F)c3)cc(O[C@@H]3CCOC3)c2n1,0.96,1.1,0.93,0.37,> 10000,56,480,27,6500,1300,> 10000,> 10000,> 10000,> 10000,> 10000,742,1.8,2620,1450,11400,AUC(0-inf) (in vivo [13]): 1460 ng·h/mL; AUC(0-inf) (in vivo [14]): 17100 ng·h/mL; half-life (in vivo [15]): 31.8 min; half-life (in vivo [16]): 972 min; clearance (in vivo [17]): 34.5 mL/min/kg; bioavailability (in vivo [18]): 78.4%; MTD at 336 h (in vivo [19]): > 40 mg/kg

# Source: ChEMBL document CHEMBL4145625 (J Med Chem, 2018)
